Test results reported in ChEMBL document CHEMBL5143645, “Synthesis of harmine-nitric oxide donor derivatives as potential antitumor agents” (Bioorg Med Chem Lett, 2022).
Each block holds one compound with its values, some of them ahead of it. The source made the active and inactive calls. The calls are words filed in the database; no cut-off is given here.

How the values were obtained:
BGC-823 = assay: Antiproliferative activity against human BGC-823 cells assessed as reduction in cell viability incubated for 72 hrs by CCK-8 assay; assay type: functional, cell-based; details: BGC-823, 72 h
A549 = assay: Antiproliferative activity against human A549 cells assessed as reduction in cell viability incubated for 72 hrs by CCK-8 assay; assay type: functional, cell-based; details: A549, 72 h
MCF7 = assay: Antiproliferative activity against human MCF7 cells assessed as reduction in cell viability incubated for 72 hrs by CCK-8 assay; assay type: functional, cell-based; details: MCF7, 72 h
HepG2 [1] = assay: Antiproliferative activity against human HepG2 cells assessed as reduction in cell viability incubated for 72 hrs by CCK-8 assay; assay type: functional, cell-based; details: HepG2, 72 h
HCT-116 = assay: Antiproliferative activity against human HCT-116 cells assessed as reduction in cell viability incubated for 72 hrs by CCK-8 assay; assay type: functional, cell-based; details: HCT-116, 72 h
[2] = Cytotoxicity against human L02 cells assessed as reduction in cell viability incubated for 72 hrs by CCK-8 assay; assay type: toxicity, cell-based
HepG2 [3] = assay: Induction of NO release in human HepG2 cells assessed as increase in mean fluorescence intensity at 1.5 uM incubated for 72 hrs by DAF-FM DA dye based fluorescence microscopic analysis; assay type: functional, cell-based
HepG2 [4] = assay: Induction of NO release in human HepG2 cells assessed as increase in mean fluorescence intensity at 1 uM incubated for 72 hrs by DAF-FM DA dye based fluorescence microscopic analysis; assay type: functional, cell-based
HepG2 [5] = assay: Induction of cell cycle arrest in human HepG2 cells assessed as accumulation of cells at S phase at 7.5 uM incubated for 24 hrs by PI staining based flow cytometry analysis (reference value: 42.03%); assay type: functional
HepG2 [6] = assay: Induction of cell cycle arrest in human HepG2 cells assessed as accumulation of cells at G2/M phase at 15 uM incubated for 24 hrs by PI staining based flow cytometry analysis (reference value: 14.58%); assay type: functional
HepG2 [7] = assay: Induction of cell cycle arrest in human HepG2 cells assessed as accumulation of cells at G2/M phase at 1.5 uM incubated for 24 hrs by PI staining based flow cytometry analysis (reference value: 14.58%); assay type: functional
HepG2 [8] = assay: Induction of apoptosis in human HepG2 cells assessed as viable cells at 1.5 uM incubated for 24 hrs by PI and annexin V-FITC staining based flow cytometry (reference value: 93.97%); assay type: functional; details: read-out: Activity
HepG2 [9] = assay: Induction of cell cycle arrest in human HepG2 cells assessed as accumulation of cells at S phase at 15 uM incubated for 24 hrs by PI staining based flow cytometry analysis (reference value: 42.03%); assay type: functional
HepG2 [10] = assay: Induction of cell cycle arrest in human HepG2 cells assessed as accumulation of cells at G1 phase at 1.5 uM incubated for 24 hrs by PI staining based flow cytometry analysis (reference value: 42.39%); assay type: functional
[11] = Apparent permeability across basolateral to apical side in human Caco-2 cells at 2 uM measured after 2 hrs by […] dye based microplate reader analysis; assay type: ADME, cell-based
HepG2 [12] = assay: Induction of apoptosis in human HepG2 cells assessed as late apoptotic cells at 7.5 uM incubated for 24 hrs by PI and annexin V-FITC staining based flow cytometry (reference value: 0.36%); assay type: functional
HepG2 [13] = assay: Induction of cell cycle arrest in human HepG2 cells assessed as accumulation of cells at G2/M phase at 7.5 uM incubated for 24 hrs by PI staining based flow cytometry analysis (reference value: 14.58%); assay type: functional
[14] = Acute toxicity in ICR mouse assessed as abnormality in drinking at less than 100 mg/kg, ip measured over 14 days; assay type: organism-based; details: in vivo, 336 h, time 14 day
HepG2 [15] = assay: Induction of apoptosis in human HepG2 cells assessed as early apoptotic cells at 15 uM incubated for 24 hrs by PI and annexin V-FITC staining based flow cytometry (reference value: 2.68%); assay type: functional
HepG2 [16] = assay: Induction of cell cycle arrest in human HepG2 cells assessed as accumulation of cells at G1 phase at 15 uM incubated for 24 hrs by PI staining based flow cytometry analysis (reference value: 42.39%); assay type: functional
HepG2 [17] = assay: Induction of apoptosis in human HepG2 cells assessed as late apoptotic cells at 15 uM incubated for 24 hrs by PI and annexin V-FITC staining based flow cytometry (reference value: 0.36%); assay type: functional
HepG2 [18] = assay: Induction of apoptosis in human HepG2 cells assessed as early apoptotic cells at 7.5 uM incubated for 24 hrs by PI and annexin V-FITC staining based flow cytometry (reference value: 2.68%); assay type: functional
HepG2 [19] = assay: Induction of apoptosis in human HepG2 cells assessed as viable cells at 7.5 uM incubated for 24 hrs by PI and annexin V-FITC staining based flow cytometry (reference value: 93.97%); assay type: functional; details: read-out: Activity
[20] = Acute toxicity in ICR mouse assessed as change in activity at less than 100 mg/kg, ip measured over 14 days; assay type: organism-based; details: in vivo, 336 h, time 14 day
[21] = Acute toxicity in ip dosed ICR mouse assessed as maximum tolerated dose measured over 14 days; assay type: organism-based; details: in vivo, time 14 day
HepG2 [22] = assay: Induction of cell cycle arrest in human HepG2 cells assessed as accumulation of cells at G1 phase at 7.5 uM incubated for 24 hrs by PI staining based flow cytometry analysis (reference value: 42.39%); assay type: functional
HepG2 [23] = assay: Induction of apoptosis in human HepG2 cells assessed as necrotic cells at 7.5 uM incubated for 24 hrs by PI and annexin V-FITC staining based flow cytometry (reference value: 0.36%); assay type: functional
[24] = Stability in Sprague-Dawley rat plasma assessed as parent compound remaining at 40 uM measured up to 36 hrs by HPLC analysis; assay type: ADME, cell-free
[25] = Acute toxicity in ICR mouse assessed as death time at 10 mg/kg, ip measured over 14 days; assay type: organism-based; details: in vivo, 336 h, time 14 day
[26] = Acute toxicity in ICR mouse assessed as death time at 50 mg/kg, ip measured over 14 days; assay type: organism-based; details: in vivo, 336 h, time 14 day
HepG2 [27] = assay: Induction of apoptosis in human HepG2 cells assessed as early apoptotic cells at 1.5 uM incubated for 24 hrs by PI and annexin V-FITC staining based flow cytometry (reference value: 2.68%); assay type: functional
HepG2 [28] = assay: Induction of apoptosis in human HepG2 cells assessed as late apoptotic cells at 1.5 uM incubated for 24 hrs by PI and annexin V-FITC staining based flow cytometry (reference value: 0.36%); assay type: functional
HepG2 [29] = assay: Induction of cell cycle arrest in human HepG2 cells assessed as accumulation of cells at S phase at 1.5 uM incubated for 24 hrs by PI staining based flow cytometry analysis (reference value: 42.03%); assay type: functional
HepG2 [30] = assay: Induction of apoptosis in human HepG2 cells assessed as viable cells at 15 uM incubated for 24 hrs by PI and annexin V-FITC staining based flow cytometry (reference value: 93.97%); assay type: functional; details: read-out: Activity
HepG2 [31] = assay: Induction of apoptosis in human HepG2 cells assessed as necrotic cells at 1.5 uM incubated for 24 hrs by PI and annexin V-FITC staining based flow cytometry (reference value: 0.36%); assay type: functional
[32] = Apparent permeability across apical to basolateral side in human Caco-2 cells at 2 uM measured after 2 hrs by […] dye based microplate reader analysis; assay type: ADME, cell-based
[33] = Stability of the compound in PBS at pH 7.4 assessed as parent compound remaining at 40 uM measured up to 36 hrs by HPLC analysis; assay type: physicochemical; details: buffer, pH 7.4, 36 h
HepG2 [34] = assay: Induction of apoptosis in human HepG2 cells assessed as necrotic cells at 15 uM incubated for 24 hrs by PI and annexin V-FITC staining based flow cytometry (reference value: 0.36%); assay type: functional
[35] = Acute toxicity in ICR mouse assessed as change in body weight at less than 100 mg/kg, ip measured over 14 days; assay type: organism-based; details: in vivo, 336 h, time 14 day
[36] = Acute toxicity in ICR mouse assessed as abnormality in eating at less than 100 mg/kg, ip measured over 14 days; assay type: organism-based; details: in vivo, 336 h, time 14 day
HepG2 [37] = assay: Induction of NO release in human HepG2 cells assessed as increase in mean fluorescence intensity at 1 to 9 uM incubated for 72 hrs by DAF-FM DA dye based fluorescence microscopic analysis; assay type: functional, cell-based; details: dose 1-9 µM

SMILES: COc1cccc2c1C(=O)c1c(O)c3c(c(O)c1C2=O)C[C@@](O)(C(=O)CO)C[C@@H]3O[C@H]1C[C@H](N)[C@H](O)[C@H](C)O1 [DOXORUBICIN]
- IC50 (BGC-823): 0.66 µM
- IC50 (A549): 1.05 µM
- IC50 (MCF7): 0.38 µM
- IC50 (HepG2 [1]): 0.425 µM
- IC50 (HCT-116): 0.87 µM

SMILES: Br.Cc1c2c(cc[n+]1Cc1ccccc1)c1ccc(OCC(=O)OCCCCOc3no[n+]([O-])c3S(=O)(=O)c3ccccc3)cc1n2CCCc1ccccc1
- Activity (HepG2 [3]): Active
- Activity (HepG2 [4]): Active
- Activity (HepG2 [5]): 46.2%
- IC50 (BGC-823): 8.68 µM
- Activity (HepG2 [6]): 30.22%
- IC50 at 72 h [2]: 10 µM
- Activity (HepG2 [7]): 18.57%
- viability at 1.5 µM (HepG2 [8]): 81.2%
- Activity (HepG2 [9]): 36.56%
- Activity (HepG2 [10]): 40.68%
- Papp B→A at 2 h, 2 µM [11]: < 0.05 ×10⁻⁶ cm/s
- Activity (HepG2 [12]): 5.56%
- Activity (HepG2 [13]): 20.03%
- Activity [14]: Non-Toxic
- Activity (HepG2 [15]): 20.86%
- Activity (HepG2 [16]): 33.22%
- Activity (HepG2 [17]): 14.73%
- Activity (HepG2 [18]): 12.78%
- IC50 (A549): 3.43 µM
- viability at 7.5 µM (HepG2 [19]): 77.2%
- Activity [20]: Non-Toxic
- MTD at 336 h [21]: 100 mg/kg
- Activity (HepG2 [22]): 33.77%
- Activity (HepG2 [23]): 4.45%
- Stability [24]: Stable
- Activity [25]: Non-Toxic
- IC50 (MCF7): 2.85 µM
- Activity [26]: Non-Toxic
- Activity (HepG2 [27]): 10.11%
- Activity (HepG2 [28]): 4.28%
- IC50 (HepG2 [1]): 1.79 µM
- Activity (HepG2 [29]): 40.75%
- viability at 15 µM (HepG2 [30]): 58.3%
- Activity (HepG2 [31]): 4.44%
- Papp A→B at 2 h, 2 µM [32]: < 0.05 ×10⁻⁶ cm/s
- Stability [33]: Stable
- IC50 (HCT-116): 7.77 µM
- Activity (HepG2 [34]): 6.08%
- Activity [35]: Non-Toxic
- Activity [36]: Non-Toxic
- Activity (HepG2 [37]): Active

SMILES: COc1ccc2c(c1)[nH]c1c(C)nccc12 [HARMINE]
- IC50 (BGC-823): 15.6 µM
- IC50 at 72 h [2]: 25.1 µM
- IC50 (A549): 5.23 µM
- Activity [25]: Non-Toxic
- IC50 (MCF7): 15.3 µM
- IC50 (HepG2 [1]): 16.8 µM
- IC50 (HCT-116): 6.94 µM

Now from value to compound, other results behind:

- IC50 (BGC-823): 11.8 µM
- IC50 (A549): 7.93 µM
- IC50 (MCF7): 7.33 µM
- IC50 (HepG2 [1]): 6.6 µM
- IC50 (HCT-116): 9.11 µM
SMILES: O=S(=O)(c1ccccc1)c1c(OCCCO)no[n+]1[O-]
- IC50 at 72 h [2]: 21.7 µM

- IC50 (BGC-823): 37.4 µM
- IC50 (A549): 52.9 µM
- IC50 (MCF7): 26.1 µM
- IC50 (HepG2 [1]): 113 µM
- IC50 (HCT-116): 40 µM
SMILES: Cc1c2c(cc[n+]1Cc1ccccc1)c1ccc(OCC(=O)O)cc1n2CCCc1ccccc1
- IC50 at 72 h [2]: 90.3 µM

- IC50 (BGC-823): 3.14 µM
- IC50 (A549): 3.49 µM
- IC50 (MCF7): 4.94 µM
- IC50 (HepG2 [1]): 4.99 µM
- IC50 (HCT-116): 6.16 µM
SMILES: O=S(=O)(c1ccccc1)c1c(OCCCCO)no[n+]1[O-]
- IC50 at 72 h [2]: 17.9 µM
